Experimental data from article PMC11207111, “Assessment of the Activity of Nitroisoxazole Derivatives against Trypanosoma cruzi” (Molecules, 2024).

Experiments:
[1] = Cyclic voltammetry (reduction of the nitro group); format: physicochemical; design: key to −EpcI / −EpcII / −EpaII / −EpaI: potentials in V vs Ag/AgCl; |ΔEp|: unit not given here
From the text: The chemistry mechanism of reduction in nitroisoxazole derivatives was investigated using cyclic voltammetry.
The peak near −1.32 V corresponds to a quasi-reversible one-electron transfer, according to the criteria of Nicholson–Shain [26] (Table 1), attributable to the species −NO2/NO2.− . The latter species stable anion radical at room temperature. […] An irreversible peak at −0.93 V to the mono-electronic transfer −HNO2/HNO2.− is observed, coupled with a chemical reaction associated with […] of the formed radical. This was evidenced by the addition of NaOH (1 M), which caused a decrease in the Ic peak (Figure 2c).
As previously described, an irreversible signal assigned to hydroxylamine oxidation to a nitroso derivative is also observed for N-acylhydrazones organometallic compounds with a pendant 5-nitrofuryl group. […] Compound 7, which has the least negative reduction potential, can be attributed to introducing a nitro group in the para position of the nitroisoxazole ring. This effect can also be observed in derivatives containing halogens in the same position.
Electrochemical characterization of the new compounds was performed through cyclic voltammetry (CV) on a 693 VA Metrohm instrument (Tokyo, Japan) equipped with a 694 VA Stand converter and 693 VA processor. Potentials were recorded against the Ag/AgCl reference electrode; a hanging drop of mercury (HDME) was used as a working electrode, and platinum was used as an auxiliary electrode. Tetrabutylammonium perchlorate (TBAP, 0.1 M) in DMSO was used as a supporting electrolyte under an N2 atmosphere at room temperature. Using Nicholson´s procedure, the Ipa/Ipc values (RNO2/RNO2^−) were measured from each cyclic voltammogram with a scan rate between 0.1 and 2.5 V/s.

[2] = ORAC-FL antioxidant capacity; conditions: relative to Trolox; phosphate buffer 75 mM, pH 7.4, 37 °C
Description: To corroborate the generation of the nitro radical, the antioxidant capacity of the series under study was determined by ORAC-FL methodology, employing a fluorescent probe to capture oxygen-centered radicals (Table 2). The ORAC-FL values of the studied compounds are close to the reference value of Trolox, indicating a low antioxidant capacity. For compounds (1-3), the presence of amino substituents decreases antioxidant activity due to their […] characteristics, preventing the presence of labile hydrogens. […] Compounds 4 and 10 present similar ORAC indexes as aromatic rings with high electron density insert the transfer of labile protons. Antioxidant capacity was determined using the ORAC-fluorescence methodology (ORAC-FL). The analysis used a 96-well white polystyrene plate reader (EnSpire multimode PerkinElmer, Waltham, MA, USA). The reaction was carried out in phosphate buffer (75 mM, pH 7.4). […] A blank with FL and AAPH, using dimethyl sulfoxide instead of the antioxidant solution, was used in each assay. […] The inhibitor capacity was expressed as ORAC-FL values and quantified by integrating the area under the curve (AUCNET). All reaction mixtures were prepared in triplicate, and at least three independent assays were performed for each sample. The area under the fluorescence decay curve (AUC) was calculated by integrating the fluorescence decay where F0 is the initial fluorescence read at 0 min, and F is the fluorescence read at the time. The AUCNET corresponding to the sample was calculated by subtracting the AUC corresponding to the blank. Data were processed using Origin […].5 SR2 (San Francisco, CA, USA). The ORAC-FL indices were calculated according to the following Equation (1): (1) ORAC-[…]]

[3] = tested on: epimastigote of T. cruzi Dm28; test: Trypanocidal activity (MTT) on epimastigotes; format: cell-based; conditions: Trypanosoma cruzi; for killing at 100 µM: 24 h, n.a = not active, read-out: % T. cruzi Epimastigote (trypanocidal effect)
Description: As a preliminary step, a study of nitroisoxazole derivatives on the epimastigote form of T. cruzi was performed. Despite the epimastigote form not being a clinical form present in mammals, its easy handling has allowed screening for the trypanocidal activity of various compounds. It is worth noting that, during the intracellular life cycle of the parasite, a form similar to the epimastigote, which is biochemically and morphologically identical to the form present in the vector, has been described. […] RPMI 1640 medium) for 24 h. […] The effects of the compounds on trypomastigote and Vero cell viability were evaluated by tetrazolium salt reduction assay (MTT). […] The plates were kept overnight at 37 °C (28 °C for epimastigotes), and the optical density (OD) was determined using a 96-well microplate reader (Vantaa, Finland) at 570 nm. Under these conditions, the OD is directly proportional to each well’s viable number of cells. The experiments were performed in triplicate across three different assays.

[4] = tested on: trypomastigote of T. cruzi Dm28; test: Trypanocidal activity (MTT) on trypomastigotes; format: cell-based; conditions: Trypanosoma cruzi; for killing at 100 µM: 24 h, n.a = not active, read-out: % T. cruzi Trypomastigote (trypanocidal effect); for IC50: T. cruzi Dm28, 24 h
Description: As a preliminary step, a study of nitroisoxazole derivatives on the epimastigote form of T. cruzi was performed. Despite the epimastigote form not being a clinical form present in mammals, its easy handling has allowed screening for the trypanocidal activity of various compounds. It is worth noting that, during the intracellular life cycle of the parasite, a form similar to the epimastigote, which is biochemically and morphologically identical to the form present in the vector, has been described. […] This is consistent with studies by Fonseca-Berzal et al. […] Additionally, compounds with higher activity have aromatic rings as substituents for nitroisoxazoles, confirming what was described Do […] [40]. […] It has also been determined that the presence of an isoxazole is essential for activity, as its aromatic structure contains a weak nitrogen-oxygen bond that, under different reaction conditions, can undergo ring cleavage, increasing activity. The results obtained on epimastigotes cannot be conclusive for determining potential Chagas agents, so conducting studies on the infective, extracellular, non-replicative trypomastigote form of T. cruzi present in humans is essential. […] RPMI 1640 medium) for 24 h. […] The effects of the compounds on trypomastigote and Vero cell viability were evaluated by tetrazolium salt reduction assay (MTT). […] The plates were kept overnight at 37 °C (28 °C for epimastigotes), and the optical density (OD) was determined using a 96-well microplate reader (Vantaa, Finland) at 570 nm. Under these conditions, the OD is directly proportional to each well's viable number of cells. The experiments were performed in triplicate across three different assays.

Vero mammalian cells = test: Cytotoxicity (MTT) on Vero cells; format: cell-based; conditions: Chlorocebus sabaeus, 24 h
Description: Additionally, the cytotoxicity of the compounds on VERO mammalian cells was assessed (Table 4). […] It is observed that the majority of the derivatives present considerable cytotoxicity. […] RPMI 1640 medium) for 24 h. […] The effects of the compounds on trypomastigote and Vero cell viability were evaluated by tetrazolium salt reduction assay (MTT). […] The plates were kept overnight at 37 °C (28 °C for epimastigotes), and the optical density (OD) was determined using a 96-well microplate reader (Vantaa, Finland) at 570 nm. Under these conditions, the OD is directly proportional to each well’s viable number of cells. The experiments were performed in triplicate across three different assays.

T. cruzi trypomastigotes = test: Generation of ROS (DCFH2-DA fluorescent probe); format: cell-based, Trypanosoma cruzi; conditions: 100 µM, 40 min, vs control without compound
Description: To generate radical species on T. cruzi trypomastigotes, intracellular free radicals were determined using the fluorescent probe dichlorofluorescein (DCF).
The cultures were incubated with a 20 µM DCFH2-DA solution for 15 min at 28 °C. Then, they were centrifuged at 3500 rpm and washed 2 times with phosphate buffer saline (PBS) pH 7.4. Cells loaded with DCFH2-DA were transferred to a Nunc® fluorescence 96-well plate (Thermo Fisher Scientific Inc., Waltham, MA, USA), where the nitroisoxazoles derivates were added at 100 µM. Fluorescence (exi: 488 nm, emi: 528 nm) was recorded for 40 min in a BioTek (Winooski, VT, USA) Synergy HT spectrofluorometer. The area under increase curves over time was determined using Oring 8 software, with areas normalized to control. Results are the means ± SD of three independent experiments.

[5] = cyclic voltammetry at 2.0 V/s, DMSO, 0.1 M TBAP, vs Ag/AgCl

SMILES	Ipa/Ipc ([1]; cyclic voltammetry at 2.0 V/s)	|ΔEp| ([1]; cyclic voltammetry at 2.0 V/s)	−EpaII [1, 5]	−EpcII [1, 5]	melting point [°C]	peak potential, quasi-reversible one-electron transfer −NO2/NO2.− ([1]; cyclic voltammogram, Figure 2a) [V]	−EpcI [1, 5]	−EpaI [1, 5]	ORAC-FL Index [2]	killing at 100 µM [3] [%]	IC50 ([3]; T. cruzi Dm28, 24 h, read-out: IC50 T. cruzi E (epimastigote)) [µM]	killing at 100 µM [4] [%]	IC50 [4] [µM]	IC50 (Vero mammalian cells) [µM]	ROS generation (DCF fluorescence intensity) (T. cruzi trypomastigotes)
Cc1noc(/C=C/N(C)C)c1[N+](=O)[O-] [Compound 1, (E)-N,N-Dimethyl-2-(3-methyl-4-nitroisoxazol-5-yl)ethen-1-amine]	−0.44	140	1.19	1.33	154 to 156	–	–	–	0.9 ± 0.2	18 ± 1	–	–	–	–	–
Cc1noc(/C=C/N2CCCC2)c1[N+](=O)[O-] [Compound 2, (E)-3-Methyl-4-nitro-5-(2-(pyrrolidin-1-yl)vinyl)isoxazole]	0.32	120	1.20	1.32	145 to 147	~−1.32	–	–	0.14 ± 0.05	19 ± 3	–	–	–	–	–
Cc1noc(/C=C/N2CCCCC2)c1[N+](=O)[O-] [Compound 3, (E)-3-Methyl-4-nitro-5-(2-(piperidin-1-yl)vinyl)isoxazole]	−0.19	100	1.19	1.29	151 to 153	–	–	–	0.52 ± 0.05	17 ± 5	> 400	20 ± 2	> 400	> 400	increase in fluorescence intensity
Cc1noc(/C=C/c2ccccc2)c1[N+](=O)[O-] [Compound 4, (E)-3-Methyl-4-nitro-5-styrylisoxazole]	−0.09	90	0.80	0.89	176 to 178	–	–	–	0.33 ± 0.06	47 ± 4	–	0	–	–	–
Cc1noc(/C=C/c2ccc([N+](=O)[O-])cc2)c1[N+](=O)[O-] [Compound 7, (E)-3-Methyl-4-nitro-5-(4-nitrostyryl)isoxazole]	−0.44	70	0.64	0.71	225 to 227	–	–	–	0.57 ± 0.08	36 ± 2	–	–	–	–	–
Cc1noc(C)c1[N+](=O)[O-] [Compound P1, 3,5-dimethyl-4-nitroisoxazole]	–	–	–	–	–	–	–	–	–	14 ± 3	–	–	–	–	–
O=CCc1ccc(Br)cc1 [Compound P2, 4-bromophenyl acetaldehyde]	–	–	–	–	–	–	–	–	–	5 ± 2	–	–	–	–	–
CC1CS(=O)(=O)CCN1/N=C/c1ccc([N+](=O)[O-])o1 (stereo not drawn) [Nfx, nifurtimox, reference compound]	–	–	–	–	–	–	–	–	–	98.9 ± 0.3	–	74 ± 1	10.04 ± 0.1	172.9 ± 0.1	–
Cc1c(C)c2c(c(C)c1O)CCC(C)(C(=O)O)O2 (stereo not drawn) [Trolox, reference compound]	–	–	–	–	–	–	–	–	1.00 ± 0.01	–	–	–	–	–	–

Now from value to compound, other results behind:

Ipa/Ipc ([1]; cyclic voltammetry at 2.0 V/s)	|ΔEp| ([1]; cyclic voltammetry at 2.0 V/s)	−EpaII [1, 5]	−EpcII [1, 5]	melting point [°C]	peak potential, quasi-reversible one-electron transfer −NO2/NO2.− ([1]; cyclic voltammogram, Figure 2a) [V]	−EpcI [1, 5]	−EpaI [1, 5]	SMILES	ORAC-FL Index [2]	killing at 100 µM [3] [%]	IC50 ([3]; T. cruzi Dm28, 24 h, read-out: IC50 T. cruzi E (epimastigote)) [µM]	killing at 100 µM [4] [%]	IC50 [4] [µM]	IC50 (Vero mammalian cells) [µM]	ROS generation (DCF fluorescence intensity) (T. cruzi trypomastigotes)
–	–	–	0.74	187 to 189	–	–	–	Cc1noc(/C=C/c2ccc(C(F)(F)F)cc2)c1[N+](=O)[O-] [Compound 6, (E)-3-Methyl-4-nitro-5-(4-(trifluoromethyl)styryl)isoxazole]	0.8 ± 0.1	28 ± 2	–	–	–	–	–
−0.16	100	0.74	0.84	145 to 147	–	–	–	Cc1noc(/C=C/c2ccco2)c1[N+](=O)[O-] [Compound 10, (E)-5-(2-(Furan-2-yl)vinyl)-3-methyl-4-nitroisoxazole]	0.36 ± 0.07	42 ± 2	–	–	–	–	–
−0.32	120	0.84	0.96	208 to 211	–	0.72	–	Cc1ccc(-n2cc(/C=C/c3onc(C)c3[N+](=O)[O-])c3ccccc32)cc1 [Compound 14, (E)-3-Methyl-4-nitro-5-(2-(1-(p-tolyl)-1H-indol-3-yl)vinyl)isoxazole]	0.4 ± 0.1	27 ± 2	–	3 ± 1	–	–	–
−0.14	100	0.95	1.10	169 to 172	–	0.80	0.70	Cc1noc(/C=C/c2ccccc2Br)c1[N+](=O)[O-] [Compound 15, (E)-5-(2-Bromostyryl)-3-methyl-4-nitroisoxazole]	0.8 ± 0.3	29 ± 2	–	–	–	–	–
